In patent publication US20240287080A1 (IDEAYA Biosciences Inc., priority 2021, published 2024):

Molecular target: T1, Pol theta (1-899) (Homo sapiens, UniProt O75417)
T1 construct: Pol theta (1-899) (5 nM) in assay buffer
Test: Pol theta ATPase activity, NADH oxidation-coupled enzymatic assay (ATPase NADH coupling: Standard Screening: hPolQ)
Assay type: biochemical
Details: Pol theta (1-899) 5 nM, NADH oxidation-coupled ATPase assay; compounds of Table 3
Outline: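 Rates of ATP hydrolysis taken from 60-min A340 traces of NADH oxidation via PK/LDH coupling, then fit four-parameter for IC50, Hill slope and max inhibition. Enzyme (5 nM, 1-899) and compounds preincubated 15 min before ATP 100 μM and 50-thymine ssDNA 300 nM (stock, equal volume added).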

T1 sequence (O75417 1-899): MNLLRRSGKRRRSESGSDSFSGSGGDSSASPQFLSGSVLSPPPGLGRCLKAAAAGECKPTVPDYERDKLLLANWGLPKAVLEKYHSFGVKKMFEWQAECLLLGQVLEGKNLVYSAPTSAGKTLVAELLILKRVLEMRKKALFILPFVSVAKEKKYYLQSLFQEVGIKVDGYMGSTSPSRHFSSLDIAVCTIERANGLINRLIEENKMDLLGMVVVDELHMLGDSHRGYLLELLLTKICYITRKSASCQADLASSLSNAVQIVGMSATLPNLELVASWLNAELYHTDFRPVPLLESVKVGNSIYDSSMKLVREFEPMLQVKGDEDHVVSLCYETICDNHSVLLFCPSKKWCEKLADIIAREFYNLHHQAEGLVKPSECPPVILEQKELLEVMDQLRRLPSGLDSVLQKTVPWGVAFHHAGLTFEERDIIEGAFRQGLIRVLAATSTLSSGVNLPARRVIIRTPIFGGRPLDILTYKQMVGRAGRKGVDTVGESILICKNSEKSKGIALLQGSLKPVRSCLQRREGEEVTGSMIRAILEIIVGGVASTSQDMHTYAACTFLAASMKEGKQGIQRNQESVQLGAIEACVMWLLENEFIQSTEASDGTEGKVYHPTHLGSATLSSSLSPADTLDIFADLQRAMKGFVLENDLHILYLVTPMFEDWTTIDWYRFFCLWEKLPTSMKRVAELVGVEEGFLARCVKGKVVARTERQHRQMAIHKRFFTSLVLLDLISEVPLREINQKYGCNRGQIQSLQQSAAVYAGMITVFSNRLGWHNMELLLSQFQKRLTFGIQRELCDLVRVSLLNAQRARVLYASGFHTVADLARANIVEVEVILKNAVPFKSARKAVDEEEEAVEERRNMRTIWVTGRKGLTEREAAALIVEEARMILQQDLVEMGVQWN

Row | SMILES | IC50 [nM]
1 | COc1cnc(Cl)cc1-c1cc(C)ncc1C(=O)Nc1nnc(O[C@H]2CCCN([C@@H]3CCOC3)C2)s1 [Example 309, 2′-chloro-5′-methoxy-6-methyl-N-(5-(((S)-1-((R)-tetrahydrofuran-3-yl)piperidin-3-yl)oxy)-1,3,4-thiadiazol-2-yl)-[4,4′-bipyridine]-3-carboxamide] | ≤ 200
2 | COc1nnc(NC(=O)c2cnc(C)cc2-c2cccc3cnccc23)s1 [Example 372, 4-(isoquinolin-5-yl)-N-(5-methoxy-1,3,4-thiadiazol-2-yl)-6-methylpyridine-3-carboxamide] | 200 to 500
3 | COc1nnc(NC(=O)c2nnc(C)cc2-c2cc(Cl)ncc2OC)s1 [Example 294, 4-(2-chloro-5-methoxypyridin-4-yl)-N-(5-methoxy-1,3,4-thiadiazol-2-yl)-6-methylpyridazine-3-carboxamide] | 200 to 500
4 | COc1nnc(NC(=O)c2cnc(C)cc2-c2ccc(C(=O)N(C)C)cc2)s1 [Example 369, 4-[4-(dimethylcarbamoyl)phenyl]-N-(5-methoxy-1,3,4-thiadiazol-2-yl)-6-methylpyridine-3-carboxamide] | 1000 to 10000
5 | COc1cnc(C)c(F)c1-c1cc(C)ncc1C(=O)Nc1nnc(OCCN(C)CC(F)(F)F)s1 [Example 258, 3′-fluoro-5′-methoxy-2′,6-dimethyl-N-(5-(2-(methyl(2,2,2-trifluoroethyl)amino)ethoxy)-1,3,4-thiadiazol-2-yl)-[4,4′-bipyridine]-3-carboxamide] | ≤ 200
6 | COc1nnc(NC(=O)c2cnc(C)cc2-c2ccc3ccccc3c2)s1 [Example 363, N-(5-methoxy-1,3,4-thiadiazol-2-yl)-6-methyl-4-(naphthalen-2-yl)pyridine-3-carboxamide] | 500 to 1000
7 | CCCCc1ccc(-c2cc(C)ncc2C(=O)Nc2nnc(OC)s2)cc1 [Example 484, 4-(4-butylphenyl)-N-(5-methoxy-1,3,4-thiadiazol-2-yl)-6-methylpyridine-3-carboxamide] | 1000 to 10000
8 | CNC(=O)c1cncc(-c2cc(C)ncc2C(=O)Nc2nnc(OC)s2)c1 [Example 339, N3′-(5-methoxy-1,3,4-thiadiazol-2-yl)-N5,6′-dimethyl-[3,4′-bipyridine]-3′,5-dicarboxamide] | 1000 to 10000
9 | COc1cc(C)c(-c2cc(C)ncc2C(=O)Nc2nnc(OC)s2)cn1 [Example 463, 6-methoxy-N-(5-methoxy-1,3,4-thiadiazol-2-yl)-4,6′-dimethyl-[3,4′-bipyridine]-3′-carboxamide] | 1000 to 10000
10 | COc1nnc(NC(=O)c2cnc(C)cc2-c2cc(Cl)c(S(C)(=O)=O)cc2OC)s1 [Example 272, 4-(5-chloro-2-methoxy-4-(methylsulfonyl)phenyl)-N-(5-methoxy-1,3,4-thiadiazol-2-yl)-6-methylnicotinamide] | ≤ 200
11 | COc1nnc(NC(=O)c2cnc(C)cc2-c2ccc(F)c(C(F)(F)F)c2)s1 [Example 450, 4-[4-fluoro-3-(trifluoromethyl)phenyl]-N-(5-methoxy-1,3,4-thiadiazol-2-yl)-6-methylpyridine-3-carboxamide] | ≤ 200
12 | COc1nnc(NC(=O)c2cnc(C)cc2-c2ccc(F)c(F)c2)s1 [Example 354, 4-(3,4-difluorophenyl)-N-(5-methoxy-1,3,4-thiadiazol-2-yl)-6-methylpyridine-3-carboxamide] | 1000 to 10000
13 | COc1nnc(NC(=O)c2cnc(C)cc2-c2ccc(N3CCCCC3)cc2)s1 [Example 476, N-(5-methoxy-1,3,4-thiadiazol-2-yl)-6-methyl-4-[4-(piperidin-1-yl)phenyl]pyridine-3-carboxamide] | 1000 to 10000
14 | COc1nnc(NC(=O)c2cnc(C)cc2-c2cc(C)cc(F)c2)s1 [Example 405, 4-(3-fluoro-5-methylphenyl)-N-(5-methoxy-1,3,4-thiadiazol-2-yl)-6-methylpyridine-3-carboxamide] | 200 to 500
15 | COc1cnc(C)c(F)c1-c1cc(C)ncc1C(=O)Nc1nnc(O[C@H]2CO[C@H]3OCC[C@H]32)s1 [Example 243, 3′-fluoro-N-(5-(((3R,3aS,6aR)-hexahydrofuro[2,3-b]furan-3-yl)oxy)-1,3,4-thiadiazol-2-yl)-5′-methoxy-2′,6-dimethyl-[4,4′-bipyridine]-3-carboxamide] | ≤ 200
16 | COc1ccc(-c2cc(C)ncc2C(=O)Nc2nnc(OC)s2)c(OC)c1 [Example 462, 4-(2,4-dimethoxyphenyl)-N-(5-methoxy-1,3,4-thiadiazol-2-yl)-6-methylpyridine-3-carboxamide] | 200 to 500
17 | COc1nnc(NC(=O)c2cnc(C)cc2-c2ccc(C#N)nc2)s1 [Example 437, 6-cyano-N-(5-methoxy-1,3,4-thiadiazol-2-yl)-6′-methyl-[3,4′-bipyridine]-3′-carboxamide] | 1000 to 10000
18 | COc1nnc(NC(=O)c2cnc(C)cc2-c2cn[nH]c2)s1 [Example 451, N-(5-methoxy-1,3,4-thiadiazol-2-yl)-6-methyl-4-(1H-pyrazol-4-yl)nicotinamide] | 1000 to 10000
19 | COc1cnc(Cl)cc1-c1cc(C)ncc1C(=O)Nc1nnc(OC2CCN(C3COC3)CC2)s1 [Example 280, 2′-chloro-5′-methoxy-6-methyl-N-(5-((1-(oxetan-3-yl)piperidin-4-yl)oxy)-1,3,4-thiadiazol-2-yl)-[4,4′-bipyridine]-3-carboxamide] | ≤ 200

Same assay, conditions: Table 4; Pol theta (1-899) 5 nM, ATP, dT50 ssDNA

Row | SMILES | IC50 [nM]
20 | COc1nnc(NC(=O)c2cnc(C)cc2-c2c(Cl)cccc2Cl)s1 [Example 34, 4-(2,6-dichlorophenyl)-N-(5-methoxy-1,3,4-thiadiazol-2-yl)-6-methylnicotinamide] | 500 to 1000
21 | COCCOc1nnc(NC(=O)c2ccncc2-c2ccccc2OC)s1 [Example 78] | 500 to 1000
22 | COc1cccc(F)c1-c1cc(C)ncc1C(=O)Nc1nnc(O)s1 [Example 3, 4-(2-fluoro-6-methoxyphenyl)-N-(5-hydroxy-1,3,4-thiadiazol-2-yl)-6-methylnicotinamide] | 1000 to 10000
23 | CCc1cc(-c2cc(C)ncc2C(=O)Nc2nnc(OC)s2)c(OC)cn1 [Example 44, 2′-ethyl-5′-methoxy-N-(5-methoxy-1,3,4-thiadiazol-2-yl)-6-methyl-(4,4′-bipyridine)-3-carboxamide] | ≤ 200

Same assay, conditions: Table 5; Pol theta (1-899) 5 nM, ATP, dT50 ssDNA

Row | SMILES | IC50 [nM]
24 | COc1cnc(Cl)cc1-c1cc(C)ncc1C(=O)Nc1nnc(O[C@@H]2CCC[C@H](OC)C2)s1 (single isomer, unassigned) [Example 146] | ≤ 200
25 | COc1cnc(C)c(F)c1-c1cc(C)ncc1C(=O)Nc1nnc(O[C@H]2C[C@@H]3CC[C@H]2O3)s1 (single isomer, unassigned) [Example 219] | ≤ 200
26 | COc1cnc(Cl)cc1-c1cc(C)ncc1C(=O)Nc1nnc(O[C@@H]2CO[C@@H](C)C2)s1 (single isomer, unassigned) [Example 190] | ≤ 200
27 | COc1nnc(NC(=O)c2cnc(C)cc2-c2cc3cn[nH]c3cc2OC)s1 [Example 104, N-(5-methoxy-1,3,4-thiadiazol-2-yl)-4-(6-methoxy-1H-indazol-5-yl)-6-methylnicotinamide] | 200 to 500
28 | COc1cnc(Cl)cc1-c1cc(C)ncc1C(=O)Nc1nnc(O[C@@H]2CCC[C@@H](OC)C2)s1 (single isomer, unassigned) [Example 148] | ≤ 200
29 | COc1cnc(Cl)c(F)c1-c1cc(C)ncc1C(=O)Nc1nnc(O[C@H]2CCO[C@H]2C)s1 (single isomer, unassigned) [Example 164] | ≤ 200
30 | COc1cnc(Cl)cc1-c1cc(C)ncc1C(=O)Nc1nnc(O[C@]2(C)CCOC2)s1 (single isomer, unassigned) [Example 139] | 200 to 500
